How the values were obtained:
[1] = tested on: HIV; assay: Anti-HIV activity (MT-4 cells, MTT); type: cell-based; details: Human immunodeficiency virus 1, MT4, 96 h, cultured 4 days
How it was run: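 MT-4 cells (2.5×10^5 cells/mL) mixed with serial dilutions of test sample and HIV, cultured 4 days in CO2 incubator. MTT added for 1 h, cells lysed, absorbance read at 560 nm and 690 nm.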

[2] = biological target: Voltage gated sodium channel (Nav 1.5 channel) (Homo sapiens, UniProt Q14524); details: pH 7.4
Voltage gated sodium channel (Nav 1.5 channel), sequence (Q14524 whole entry): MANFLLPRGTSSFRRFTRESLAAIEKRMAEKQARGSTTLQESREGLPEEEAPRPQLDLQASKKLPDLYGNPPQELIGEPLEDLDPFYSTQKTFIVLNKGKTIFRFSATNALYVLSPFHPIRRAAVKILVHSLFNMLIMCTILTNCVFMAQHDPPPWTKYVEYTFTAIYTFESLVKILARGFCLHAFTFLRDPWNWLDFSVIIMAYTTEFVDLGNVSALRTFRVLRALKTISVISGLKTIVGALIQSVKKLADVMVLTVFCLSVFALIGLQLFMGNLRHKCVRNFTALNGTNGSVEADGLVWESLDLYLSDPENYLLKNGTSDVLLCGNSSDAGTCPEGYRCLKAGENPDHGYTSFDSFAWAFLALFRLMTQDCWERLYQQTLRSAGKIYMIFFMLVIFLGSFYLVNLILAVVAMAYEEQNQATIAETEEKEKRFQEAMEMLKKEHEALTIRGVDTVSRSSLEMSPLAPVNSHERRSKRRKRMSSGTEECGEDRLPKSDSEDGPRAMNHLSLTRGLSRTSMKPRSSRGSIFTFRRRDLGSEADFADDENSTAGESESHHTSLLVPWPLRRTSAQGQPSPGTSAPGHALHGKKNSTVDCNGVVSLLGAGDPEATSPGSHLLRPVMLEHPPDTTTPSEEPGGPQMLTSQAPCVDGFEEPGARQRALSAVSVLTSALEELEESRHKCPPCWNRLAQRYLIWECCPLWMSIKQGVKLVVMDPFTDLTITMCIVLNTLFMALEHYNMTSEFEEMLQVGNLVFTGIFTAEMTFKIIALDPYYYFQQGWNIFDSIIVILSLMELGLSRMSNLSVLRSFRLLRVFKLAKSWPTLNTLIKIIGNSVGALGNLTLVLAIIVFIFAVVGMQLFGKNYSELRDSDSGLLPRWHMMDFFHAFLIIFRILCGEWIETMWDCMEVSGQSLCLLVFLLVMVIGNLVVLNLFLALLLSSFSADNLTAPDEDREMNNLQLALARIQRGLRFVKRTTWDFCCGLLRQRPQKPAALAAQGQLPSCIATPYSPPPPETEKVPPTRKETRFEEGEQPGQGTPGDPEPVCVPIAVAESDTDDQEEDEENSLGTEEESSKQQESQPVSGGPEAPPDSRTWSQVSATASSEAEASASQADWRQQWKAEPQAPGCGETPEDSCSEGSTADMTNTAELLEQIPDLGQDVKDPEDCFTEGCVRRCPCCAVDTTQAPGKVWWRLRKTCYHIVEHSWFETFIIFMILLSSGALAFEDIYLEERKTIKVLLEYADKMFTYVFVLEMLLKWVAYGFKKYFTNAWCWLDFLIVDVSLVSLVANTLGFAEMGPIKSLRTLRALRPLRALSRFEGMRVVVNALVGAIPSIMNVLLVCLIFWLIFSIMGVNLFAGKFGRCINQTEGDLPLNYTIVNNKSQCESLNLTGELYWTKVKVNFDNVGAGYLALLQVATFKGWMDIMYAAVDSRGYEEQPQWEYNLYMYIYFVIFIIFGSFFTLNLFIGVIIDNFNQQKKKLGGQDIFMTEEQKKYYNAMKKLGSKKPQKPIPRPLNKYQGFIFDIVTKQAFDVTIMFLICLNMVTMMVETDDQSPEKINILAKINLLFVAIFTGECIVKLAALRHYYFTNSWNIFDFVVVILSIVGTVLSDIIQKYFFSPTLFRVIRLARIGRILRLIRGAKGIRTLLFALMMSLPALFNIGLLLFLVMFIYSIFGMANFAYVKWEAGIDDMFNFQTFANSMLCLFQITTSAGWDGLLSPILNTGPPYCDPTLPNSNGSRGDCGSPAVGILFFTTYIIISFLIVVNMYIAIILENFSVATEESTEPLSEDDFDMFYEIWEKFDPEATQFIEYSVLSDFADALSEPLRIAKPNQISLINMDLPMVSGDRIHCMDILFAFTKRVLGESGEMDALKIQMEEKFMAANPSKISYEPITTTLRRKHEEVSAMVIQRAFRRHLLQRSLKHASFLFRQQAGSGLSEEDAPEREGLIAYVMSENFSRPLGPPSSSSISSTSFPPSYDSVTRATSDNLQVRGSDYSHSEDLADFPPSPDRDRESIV
Excerpt: For the purpose of assessing risk of arrhythmogenesis of the compound of the present invention, effects of the compound of the present invention on Na^+ current (INa), which plays an important role in the depolarization process of myocardium, was studied using HEK cells expressing Voltage gated sodium channel (Nav 1.5 channel) encoded by SCN5A gene. A cell is retained at a membrane potential of −100 mV by the whole cell patch clamp method using an automated patch clamp system (QPatch; Sophion Bioscience A/S), then INa induced by depolarization stimulation at −10 mV for 20 milliseconds, was recorded. […] From the obtained INa, an absolute value of the maximum peak current was measured based on the current value at the resting membrane potential using analysis software (QPatch Assay software; Sophion Bioscience A/S). The maximum peak current at the time of the application of the compound of the present invention with respect to the maximum peak current at the time of the application of the vehicle was further calculated to evaluate the influence of the compound of the present invention on INa.

[3] = tested on: HIV mutant strain 1 (E138K/G140S/Q148H/N155H); assay: Resistance evaluation test (HeLa-CD4 reporter), mutant strain 1; type: cell-based; details: FC=EC50 of mutant strain/EC50 of wild strain, HeLa-CD4 cells
Experimental: (§1) Serial dilutions of a test sample were prepared in a96-well microplate (50 μL/well). 2.5×10^5 cells/mL of a HeLa-CD4 cell suspension was dispensed at 100 μL/well to the plate containing the test sample. Then, an HIV virus solution (wild strain and mutant strain) was dispensed at 50 μL/well. The plate was mixed with a plate mixer and cultured for 3 days in a CO2 incubator. The culture supernatant in each well was removed by suction. A cell lysis buffer in a reporter assay kit was dispensed at 100 μL/well, and the plate was frozen in a freezer (−80° C.). The plate frozen in a freezer was thawed at room temperature, then mixed with a plate mixer, and centrifuged at 1,200 rpm for 5 minutes. The supernatant of each well was dispensed at 20 μL/well to a 96-well microplate (BLACK). A chemiluminescent reagent in the reporter assay kit was dispensed at 100 μL/well and reacted at room temperature for approximately 1 hour. Then, luminescence intensity was measured using MicroBeta TRILUX. […] FC=EC50 of mutant strain/EC50 of wild strain (Results) FC for the mutant strain 1 (E138K/G140S/Q148H/N155H) and FC for the mutant strain 2 (E92Q/E138T/G140S/Q148H) are shown in the table.

[4] = Metabolic stability test; type: in vitro ADME, human; set-up: key: % remaining vs amount at 0 min (=100%); details: compound 0.5 μmol/L, human liver microsomes 0.5 mg protein/mL, NADPH, 37° C., 30 minutes; amount at 0 minutes defined as 100%
Experimental: Commercially available pooled human liver microsomes were reacted with the compound of the present invention for a certain time. A residual rate was calculated by the comparison between the reacted sample and an unreacted sample to evaluate the degree at which the compound of the present invention is metabolized in the liver. A reaction was performed (oxidative reaction) at 37° C. for 0 minutes or 30 minutes in the presence of 1 mmol/L NADPH in 0.2 mL of a buffer (50 mmol/L Tris-HCl pH 7.4, 150 mmol/L potassium chloride, 10 mmol/L magnesium chloride) containing 0.5 mg protein/mL of human liver microsomes. After the reaction, 50 μL of the reaction solution was added to 100 μL of a solution of methanol/acetonitrile=1/1 (v/v) and mixed, and the mixture was centrifuged at 3000 rpm for 15 minutes. The compound of the present invention in the centrifugation supernatant was quantified by LC/MS/MS or solid-phase extraction (SPE)/MS. The amount of the compound of the present invention remaining after the reaction was calculated with the amount of the compound at 0 minutes of the reaction defined as 100%.

[5] = tested on: HIV mutant strain (T97A/E138T/G140S/Q148H); assay: Resistance evaluation test (HeLa-CD4 reporter), mutant strain T97A/E138T/G140S/Q148H; type: cell-based; details: FC=EC50 of mutant strain/EC50 of wild strain; HeLa-CD4 cells
[6] = tested on: HIV mutant strain 2 (E92Q/E138T/G140S/Q148H); assay: Resistance evaluation test (HeLa-CD4 reporter), mutant strain 2; type: cell-based; details: FC=EC50 of mutant strain/EC50 of wild strain, HeLa-CD4 cells
Experimental: as §1

[7] = Clearance evaluation test; type: in vivo; details: rat, plasma, 1 umol/kg, rats, intravenous 1 μmol/kg; for half-life: read-out: elimination half-life (t½) (converted); for clearance: read-out: total body clearance (CLtot)
Excerpt: Experimental Material and Method (1) Animals used: rats were used. (2) Rearing conditions: the rats were allowed to freely take solid feed and sterilized tap water. (3) Dose and grouping setting: a predetermined dose was intravenously administered. Groups were set as follows: Intravenous administration: 1 μmol/kg (n=2) (4) Preparation of dosing solution: the test sample was solubilized using a solvent of dimethyl sulfoxide/propylene glycol=1/1 and administered. (5) Administration method: the test sample was administered to the tail vein through a syringe with an injection needle. (6) Evaluation item: blood was collected over time, and the concentration of the compound of the present invention in plasma was measured using LC/MS/MS. (7) Statistical analysis: total body clearance (CLtot) and elimination half-life (t½) were calculated as to change in the concentration of the compound of the present invention in plasma by the moment analysis method.

[8] = tested on: HIV mutant strain 3 (E92Q/E138K/G140S/Q148H); assay: Resistance evaluation test (HeLa-CD4 reporter), mutant strain 3; type: cell-based; details: FC=EC50 of mutant strain/EC50 of wild strain, HeLa-CD4 cells
Experimental: as §1

[9] = tested on: HIV; assay: Anti-HIV activity evaluation test in the presence of human serum protein (MT-4 cells); type: cell-based; details: PS=4×(EC50 in 25% human serum protein/EC50 in absence), 100% extrapolation value
Experimental: Serial dilutions of a test sample were prepared in a 96-well microplate (50 μL/well). A human serum protein solution (50% human serum protein concentration) was dispensed at 100 μL/well into a 96-well microplate containing the test sample, and allowed to be left still at room temperature for 1 hour. For the plate of serum absence, the culture medium was dispensed at 100 μL/well. 3.0×10^5/well of MT-4 cells and 3 μL/well of an HIV viral solution were mixed in an amount of the required number of wells, and the mixture was reacted at 37° C. for 1 hour. After the reaction, the cell suspension was centrifuged and the supernatant was discarded, and the infected cells were dispersed in the culture medium in an amount of the required number of wells at 50 μL/well, and dispensed at 50 μL/well to a 96-well microplate containing the test sample and human serum protein (final concentration of the human serum protein: 25%). The plate was mixed with a plate mixer and cultured for 4 days in a CO2 incubator. An MTT (3-(4,5-dimethylthiazol-2-yl)-2,5-diphenyltetrazolium bromide) solution was dispensed at 30 μL/well. The plate was reacted for 1 hour in a CO2 incubator. 150 μL of the supernatant was removed from each well so as not to take up the cells. […] The absorbance of the mixed plate was measured at two wavelengths of 560 nm and 690 nm using a microplate reader. […]

[10] = tested on: HIV; assay: Anti-HIV activity evaluation test using PBMC of healthy humans; type: cell-based; details: Human immunodeficiency virus 1, 96 h, read-out: 90% HIV inhibitory concentration (EC90); PHA-stimulated PBMC, 4 days, reverse transcriptase activity
Experimental: Serial dilutions of a test sample were prepared in a 96-well microplate (50 μL/well). 1.0×10^5/well of PBMC stimulated with Phytohemagglutinin (PHA) and an HIV viral solution were mixed in the required number of wells and the mixture was reacted at 37° C. for 1 hour. After the reaction, the cell suspension was centrifuged and the supernatant was discarded, and the infected cells were dispersed in the culture medium in the required number of wells at 150 μL/well. The obtained medium was dispensed at 150 μL/well to a 96-well microplate containing the test sample. The plate was mixed with a plate mixer and cultured for 4 days in a CO2 incubator. The reverse transcriptase activity in the culture medium was measured.

Row | SMILES | EC50 [1] [nM] | maximum peak current (INa) with compound with respect to vehicle [2] [%] | FC mutant strain 1 [3] | residual rate [4] | FC for the mutant strain (T97A/E138T/G140S/Q148H) [5] | FC mutant strain 2 [6] | half-life [7] [h] | clearance [7] [mL/min/kg] | FC for the mutant strain 3 [8] | Potency shift (PS) [9] | EC90 [10] [nM]
1 | CN1C(=O)c2c(O)c(=O)c(C(=O)NCc3ccc(F)cc3F)cn2N2CCCC[C@@H]12 [Compound I-015] | 3.6 | 92.1 | 51 | 103 | 10 | 18 | 12.3 | 0.111 | 7.7 | – | –
2 | CN1C(=O)c2c(O)c(=O)c(C(=O)NCc3cccc(Cl)c3F)cn2N2C[C@@H]3CC[C@@H](C3)[C@@H]12 [II-028] | 1.4 | – | 9.9 | 74.2 | – | 15 | 26.7 | 0.102 | – | – | –
3 | COC[C@@H]1CC[C@H]2N(C)C(=O)c3c(O)c(=O)c(C(=O)NCc4cccc(Cl)c4F)cn3N12 [II-031] | 0.34 | 79 | 10 | 86 | – | 6.9 | – | – | – | 364 | 0.73
4 | CCN1C(=O)c2c(O)c(=O)c(C(=O)NCc3ccc(F)cc3F)cn2N2C[C@@H](C)C[C@@H]12 [II-051] | 0.74 | – | 19 | 96 | – | 21 | – | – | – | 236 | 3.3
5 | CCN1C(=O)c2c(O)c(=O)c(C(=O)NCc3ccc(F)nc3F)cn2N2C[C@@H]3CC[C@@H](O3)[C@@H]12 [II-157] | 2.2 | – | 36 | 105 | – | 25 | – | – | – | – | –

From patent US11649236B2, “Polycyclic carbamoylpyridone derivative” (Shionogi & Co., Ltd., priority 2018, dated 2023)
